This note sets out measurements from patent US20260125346A1, “Isoquinolinone Derivatives and 4H-Quinolizinone Derivatives and Pharmaceutical Compositions Thereof for the Treatment of Disease” (BeOne Medicines I GmbH, priority 2023, published 2026).

In test [1] the test system is PI3Kα H1047R mutated cell line T-47D. In words: Phospho-AKT (Ser473) Inhibition Assay (HTRF), T-47D. Type of test: cell-based. The settings on record: for pIC50: Homo sapiens, T47D, T-47D, 1 hour treatment, read-out: p-AKT Inhibition assay (S473) IC50 T-47D; for Selectivity: SK-BR-3/T-47D (p-AKT): p-AKT (S473) IC50 ratio. The method, boiled down:
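Cells seeded overnight in insulin-supplemented MEM, then treated 1 h with 11-point 1:3 compound dilutions (10 μM to 0.1 nM final, 0.1% DMSO). Lysates assayed for phospho-AKT Ser473 by HTRF; IC50 from 4-parameter logistic fit, normalised to DMSO (max) and 10 μM GDC0077 (min).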
On the technique in general: In TR-FRET formats the signal depends on donor and acceptor labels being close together.

In test [2] the target is PI3Kα (p110[H1047R]/p85) kinase (Homo sapiens, UniProt P42336, H1047R). In words: PI3Kα (p110[H1047R]/p85) kinase ADP-Glo Assay. Format: biochemical. The settings on record: 25 uM ATP; for selectivity: WT/H1047R: ADP-Glo Assay IC50 ratio. The method, boiled down: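 ADP-Glo luminescence tracked ADP formed by the mutant p110α(H1047R)/p85 complex during a 120 min room-temperature reaction with 25 µM ATP and 5.35 µg/ml PI(4,5)P2:PS lipid substrate, started after 30 min enzyme–compound–substrate pre-incubation (compound […], 50 mM HEPES pH 7.5). IC50 via four-parameter logistic equation.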
Chain of PI3Kα (p110[H1047R]/p85) kinase (P42336 whole entry H1047R): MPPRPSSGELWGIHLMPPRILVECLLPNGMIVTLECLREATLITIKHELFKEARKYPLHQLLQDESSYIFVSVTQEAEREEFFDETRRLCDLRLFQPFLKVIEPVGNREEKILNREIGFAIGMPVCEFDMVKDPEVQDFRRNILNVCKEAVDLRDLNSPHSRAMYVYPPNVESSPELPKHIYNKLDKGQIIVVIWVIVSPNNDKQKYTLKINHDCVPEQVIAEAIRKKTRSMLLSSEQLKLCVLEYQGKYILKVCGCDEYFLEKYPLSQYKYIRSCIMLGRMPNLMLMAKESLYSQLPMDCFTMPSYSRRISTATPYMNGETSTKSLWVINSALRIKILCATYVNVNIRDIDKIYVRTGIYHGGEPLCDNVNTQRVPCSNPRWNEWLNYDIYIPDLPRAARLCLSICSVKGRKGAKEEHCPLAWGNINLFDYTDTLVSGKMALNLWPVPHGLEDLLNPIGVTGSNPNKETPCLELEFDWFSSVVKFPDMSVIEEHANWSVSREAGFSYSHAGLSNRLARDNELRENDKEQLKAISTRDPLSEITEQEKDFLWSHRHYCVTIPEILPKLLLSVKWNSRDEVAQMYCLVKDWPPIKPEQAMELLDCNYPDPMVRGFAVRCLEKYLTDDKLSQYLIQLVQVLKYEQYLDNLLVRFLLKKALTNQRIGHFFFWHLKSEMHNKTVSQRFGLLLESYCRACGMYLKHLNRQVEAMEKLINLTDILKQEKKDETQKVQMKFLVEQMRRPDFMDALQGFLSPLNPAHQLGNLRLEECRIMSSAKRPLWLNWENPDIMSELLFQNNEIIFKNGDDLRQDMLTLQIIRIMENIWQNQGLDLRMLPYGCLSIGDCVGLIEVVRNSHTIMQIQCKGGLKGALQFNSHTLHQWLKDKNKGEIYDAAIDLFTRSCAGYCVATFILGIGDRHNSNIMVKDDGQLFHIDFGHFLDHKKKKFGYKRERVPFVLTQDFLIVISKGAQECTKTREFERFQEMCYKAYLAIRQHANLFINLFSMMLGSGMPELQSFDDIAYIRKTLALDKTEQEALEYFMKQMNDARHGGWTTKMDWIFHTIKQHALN
Chain of PI3Kα (p110[H1047R]/p85) kinase (P27986 whole entry partner): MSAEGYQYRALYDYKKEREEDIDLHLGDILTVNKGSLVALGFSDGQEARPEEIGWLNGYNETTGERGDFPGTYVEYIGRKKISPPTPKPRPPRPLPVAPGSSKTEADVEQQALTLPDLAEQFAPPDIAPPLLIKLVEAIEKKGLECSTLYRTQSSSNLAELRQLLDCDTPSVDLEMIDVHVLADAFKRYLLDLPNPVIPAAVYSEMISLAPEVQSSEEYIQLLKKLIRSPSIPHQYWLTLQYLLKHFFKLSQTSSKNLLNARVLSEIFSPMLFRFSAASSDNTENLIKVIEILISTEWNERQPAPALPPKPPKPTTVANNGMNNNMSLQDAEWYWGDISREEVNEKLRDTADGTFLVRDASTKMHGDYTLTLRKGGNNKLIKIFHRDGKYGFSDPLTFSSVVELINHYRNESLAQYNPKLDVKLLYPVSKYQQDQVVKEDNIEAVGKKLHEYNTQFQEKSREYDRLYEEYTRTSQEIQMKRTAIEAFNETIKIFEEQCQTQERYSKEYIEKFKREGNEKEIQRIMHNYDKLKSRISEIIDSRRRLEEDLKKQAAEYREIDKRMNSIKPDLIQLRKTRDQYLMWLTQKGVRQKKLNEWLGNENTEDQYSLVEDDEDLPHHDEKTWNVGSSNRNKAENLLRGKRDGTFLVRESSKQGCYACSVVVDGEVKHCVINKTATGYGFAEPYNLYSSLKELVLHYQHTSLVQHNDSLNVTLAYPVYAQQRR

Test [3] concerns PI3Kα H1047R mutated cell line T-47D cells. In words: Cell Proliferation Assay (CellTiter-Glo), T-47D. Type of test: cell-based. The settings on record: for pIC50: Homo sapiens, T47D, 72 h, T-47D, 3 days treatment; for Selectivity: SK-BR-3/T-47D (cell proliferation): cell proliferation IC50 ratio. The method, boiled down: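 T-47D cells seeded overnight at 3×10^3/well, then exposed 3 days to 9-point 1:3 dilutions, final […] to 1 nM in 0.1% DMSO. CellTiter-Glo luminescence; relative IC50 from percent inhibition versus medium-only and 0.1% DMSO controls, 4-parameter logistic fit.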

pIC50: −log10 of the molar value.

In general, pIC50 refers to −log10 of the IC50, conventionally taken in molar units. Consider `Cc1cc(C(C)Nc2cc3ccsc3cc2C(=O)O)c2cc(-c3ccccc3)n(C)c(=O)c2c1` (centres unmarked) [Example 47, 5-((1-(2,7-dimethyl-1-oxo-3-phenyl-1,2-dihydroisoquinolin-5-yl)ethyl)amino)benzo[b]thiophene-6-carboxylic acid], for which the results for the negative logarithm of the IC50 (pIC50) in test [1], in test [2] and in test [3] were 7.24, 6.28 and < 5.00, respectively. Moreover, the “Selectivity: SK-BR-3/T-47D (p-AKT)” value in test [1] is on record as >175. In addition, the “selectivity: WT/H1047R” value in test [2] turned out to be 27.3.

Turning to `Cc1cc(C(C)Nc2c(C(=O)O)sc3ccccc23)c2cc(-c3ccccc3)n(C)c(=O)c2c1` (centres unmarked) [Example 48, 3-((1-(2,7-dimethyl-1-oxo-3-phenyl-1,2-dihydroisoquinolin-5-yl)ethyl)amino)benzo[b]thiophene-2-carboxylic acid], in test [1], the negative logarithm of the IC50 (pIC50) was 6.20 and the “Selectivity: SK-BR-3/T-47D (p-AKT)” value is reported as 6.0. Moreover, in test [2], the pIC50 was 6.08 and the “selectivity: WT/H1047R” value was 6.2. In addition, the negative logarithm of the IC50 (pIC50) in test [3] was < 5.00.

On to `Cc1cc(C(C)Nc2ccccc2C(=O)O)c2cc(-c3ccc(C(F)(F)F)cc3)n(C)c(=O)c2c1` (centres unmarked) [Example 49, 2-((1-(2,7-dimethyl-1-oxo-3-(4-(trifluoromethyl)phenyl)-1,2-dihydroisoquinolin-5-yl)ethyl)amino)benzoic acid], for which, in test [1], the negative logarithm of the IC50 (pIC50) was 7.05 and the “Selectivity: SK-BR-3/T-47D (p-AKT)” value is given as 50.7. In test [2], the negative logarithm of the IC50 (pIC50) is 6.34 and the “selectivity: WT/H1047R” value is 20.8. Besides, in test [3], the negative logarithm of the IC50 (pIC50) is 6.01 and the “Selectivity: SK-BR-3/T-47D (cell proliferation)” value was >10.

Consider `Cc1cc(C(C)Nc2ccccc2C(=O)O)c2cc(-c3cccc(C(F)(F)F)c3)n(C)c(=O)c2c1` (centres unmarked) [Example 50, 2-((1-(2,7-dimethyl-1-oxo-3-(3-(trifluoromethyl)phenyl)-1,2-dihydroisoquinolin-5-yl)ethyl)amino)benzoic acid], for which, in test [1], the negative logarithm of the IC50 (pIC50) was 7.06 and the “Selectivity: SK-BR-3/T-47D (p-AKT)” value is 79.1. Moreover, in test [2], the pIC50 was 6.42 and the “selectivity: WT/H1047R” value is listed as 27.6. Further, in test [3], the pIC50 is 5.49 and the “Selectivity: SK-BR-3/T-47D (cell proliferation)” value was >3.1.

In the case of `Cc1cc(C(C)Nc2ccccc2C(=O)O)c2cc(-c3ccc(C(C)(C)O)cc3)n(C)c(=O)c2c1` (centres unmarked) [Example 51, 2-((1-(3-(4-(2-hydroxypropan-2-yl)phenyl)-2,7-dimethyl-1-oxo-1,2-dihydroisoquinolin-5-yl)ethyl)amino)benzoic acid], in test [1], the negative logarithm of the IC50 (pIC50) is 6.78 and the “Selectivity: SK-BR-3/T-47D (p-AKT)” value was 38.7. Further, in test [2], the negative-log IC50 (pIC50) is 6.61 and the “selectivity: WT/H1047R” value stood at 42.1. In test [3], the pIC50 was 7.02 and the “Selectivity: SK-BR-3/T-47D (cell proliferation)” value is >106.

`CC#Cc1ccc(-c2cc3c(C(C)Nc4ccccc4C(=O)O)cc(C)cc3c(=O)n2C)cc1` (centres unmarked) [Example 52, 2-((1-(2,7-dimethyl-1-oxo-3-(4-(prop-1-yn-1-yl)phenyl)-1,2-dihydroisoquinolin-5-yl)ethyl)amino)benzoic acid]: in test [1], the negative logarithm of the IC50 (pIC50) is 7.12 and the “Selectivity: SK-BR-3/T-47D (p-AKT)” value was found to be 95.1. In addition, in test [2], the pIC50 was 6.43 and the “selectivity: WT/H1047R” value was determined as 25.2. Besides, in test [3], the negative logarithm of the IC50 (pIC50) is 6.15 and the “Selectivity: SK-BR-3/T-47D (cell proliferation)” value is on record as >14.

As for `Cc1cc(C(C)Nc2ccccc2C(=O)O)c2cc(-c3ccc4c(c3)C3CC3O4)n(C)c(=O)c2c1` (centres unmarked) [Example 53, 2-((1-(3-(1a,6b-dihydro-1H-cyclopropa[b]benzofuran-5-yl)-2,7-dimethyl-1-oxo-1,2-dihydroisoquinolin-5-yl)ethyl)amino)benzoic acid], in test [1], the pIC50 was 7.35 and the “Selectivity: SK-BR-3/T-47D (p-AKT)” value is given as 56.6. In test [2], the negative-log IC50 (pIC50) is 6.58 and the “selectivity: WT/H1047R” value was 18.5. For the same molecule, in test [3], the negative-log IC50 (pIC50) is 6.09 and the “Selectivity: SK-BR-3/T-47D (cell proliferation)” value is on record as >12.

Regarding `Cc1cc(C(C)Nc2ccccc2C(=O)O)c2cc(-c3ccc(C(C)(C)O)nc3)n(C)c(=O)c2c1` (centres unmarked) [Example 55, 2-((1-(3-(6-(2-hydroxypropan-2-yl)pyridin-3-yl)-2,7-dimethyl-1-oxo-1,2-dihydroisoquinolin-5-yl)ethyl)amino)benzoic acid], in test [1], the pIC50 is 5.81 and the “Selectivity: SK-BR-3/T-47D (p-AKT)” value was >6.4. In test [2], the pIC50 is 6.14 and the “selectivity: WT/H1047R” value stood at 35.9. Further, in test [3], the pIC50 is 6.53 and the “Selectivity: SK-BR-3/T-47D (cell proliferation)” value is >34.

As to `Cc1cc([C@@H](C)Nc2ccccc2C(=O)O)c2cc(-c3ccc(C(C)(C)O)nc3)n(C)c(=O)c2c1` [Example 56, (R)-2-((1-(3-(6-(2-hydroxypropan-2-yl)pyridin-3-yl)-2,7-dimethyl-1-oxo-1,2-dihydroisoquinolin-5-yl)ethyl)amino)benzoic acid], in test [1], the negative-log IC50 (pIC50) was 6.29 and the “Selectivity: SK-BR-3/T-47D (p-AKT)” value is >19.55. For the same molecule, in test [2], the pIC50 is 5.98 and the “selectivity: WT/H1047R” value is 16.3. Also, in test [3], the negative-log IC50 (pIC50) was 7.02 and the “Selectivity: SK-BR-3/T-47D (cell proliferation)” value is >104.

As for `Cc1cc([C@H](C)Nc2ccccc2C(=O)O)c2cc(-c3ccc(C(C)(C)O)nc3)n(C)c(=O)c2c1` [Example 57, (S)-2-((1-(3-(6-(2-hydroxypropan-2-yl)pyridin-3-yl)-2,7-dimethyl-1-oxo-1,2-dihydroisoquinolin-5-yl)ethyl)amino)benzoic acid], the results for the negative-log IC50 (pIC50) in test [1], in test [2] and in test [3] were < 5.00, < 4.00 and < 5.00, respectively. Moreover, the “selectivity: WT/H1047R” value in test [2] is <0.9.

With `COc1ncc(-c2cc3c(C(C)Nc4ccccc4C(=O)O)cc(C)cc3c(=O)n2C)cc1F` (centres unmarked) [Example 58, 2-((1-(3-(5-fluoro-6-methoxypyridin-3-yl)-2,7-dimethyl-1-oxo-1,2-dihydroisoquinolin-5-yl)ethyl)amino)benzoic acid], in test [1], the pIC50 is 6.66 and the “Selectivity: SK-BR-3/T-47D (p-AKT)” value is 14.3. Besides, in test [2], the pIC50 was 6.47 and the “selectivity: WT/H1047R” value is 29.7. Moreover, in test [3], the negative-log IC50 (pIC50) was 6.45 and the “Selectivity: SK-BR-3/T-47D (cell proliferation)” value is >29.

Take `COc1ncc(-c2cc3c([C@@H](C)Nc4ccccc4C(=O)O)cc(C)cc3c(=O)n2C)cc1F` [Example 59, (R)-2-((1-(3-(5-fluoro-6-methoxypyridin-3-yl)-2,7-dimethyl-1-oxo-1,2-dihydroisoquinolin-5-yl)ethyl)amino)benzoic acid]: in test [1], the pIC50 was 7.09 and the “Selectivity: SK-BR-3/T-47D (p-AKT)” value was >123. In test [2], the pIC50 was 6.55 and the “selectivity: WT/H1047R” value turned out to be 15.3. Also, in test [3], the pIC50 was 7.03 and the “Selectivity: SK-BR-3/T-47D (cell proliferation)” value is given as >107.

As for `Cc1cc(C(C)Nc2ccccc2C(=O)O)c2cc(-c3cncnc3)n(C)c(=O)c2c1` (centres unmarked) [Example 61, 2-((1-(2,7-dimethyl-1-oxo-3-(pyrimidin-5-yl)-1,2-dihydroisoquinolin-5-yl)ethyl)amino)benzoic acid], in test [1], the negative-log IC50 (pIC50) is 5.85 and the “Selectivity: SK-BR-3/T-47D (p-AKT)” value is on record as >7.15. In addition, in test [2], the pIC50 was 6.10 and the “selectivity: WT/H1047R” value was 24.6. Besides, in test [3], the pIC50 is 6.47 and the “Selectivity: SK-BR-3/T-47D (cell proliferation)” value is given as >29.
